The IC50 is the concentration that inhibits the measured activity by half. Low readings indicate greater potency in that assay, high ones weaker potency in that assay.

This is an account of results in ChEMBL document CHEMBL1134223, “Design of non-peptide CCK2 and NK1 peptidomimetics using 1-(2-nitrophenyl)thiosemicarbazide as a novel common scaffold” (Bioorg Med Chem Lett, 2001).

For assay [1], the target named is Substance-P receptor (Rattus norvegicus, UniProt P14600). The experiment in a line: In vitro binding affinity against Tachykinin receptor 1 in rat whole forebrain membranes using [3H][Sar9Met(O2)]-SP binding assay. Format: cell membranes, Membrane.
The next assay concerns the target T1, B2 bradykinin receptor (Rattus norvegicus, UniProt P25023).
T1 sequence (P25023 whole entry): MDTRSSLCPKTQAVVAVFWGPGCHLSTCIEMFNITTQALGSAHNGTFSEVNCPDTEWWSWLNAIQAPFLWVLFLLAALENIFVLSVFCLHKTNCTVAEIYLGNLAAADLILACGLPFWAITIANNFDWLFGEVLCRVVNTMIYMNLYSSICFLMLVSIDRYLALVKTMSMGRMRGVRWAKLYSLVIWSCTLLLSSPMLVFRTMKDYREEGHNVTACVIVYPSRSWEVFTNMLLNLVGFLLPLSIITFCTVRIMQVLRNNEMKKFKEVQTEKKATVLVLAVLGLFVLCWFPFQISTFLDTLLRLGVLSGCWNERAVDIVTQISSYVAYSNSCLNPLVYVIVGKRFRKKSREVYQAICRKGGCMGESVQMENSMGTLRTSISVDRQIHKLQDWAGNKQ
The experiment in a line: In vitro binding affinity against Bradykinin receptor B2 in rat NG 108-15 neuroblastoma-glioma hybrid cell membranes using [3H]BK binding assay.

In assay [2] the target is T2, Gastrin/cholecystokinin type B receptor (Mus musculus, UniProt P56481).
T2 sequence (P56481 whole entry): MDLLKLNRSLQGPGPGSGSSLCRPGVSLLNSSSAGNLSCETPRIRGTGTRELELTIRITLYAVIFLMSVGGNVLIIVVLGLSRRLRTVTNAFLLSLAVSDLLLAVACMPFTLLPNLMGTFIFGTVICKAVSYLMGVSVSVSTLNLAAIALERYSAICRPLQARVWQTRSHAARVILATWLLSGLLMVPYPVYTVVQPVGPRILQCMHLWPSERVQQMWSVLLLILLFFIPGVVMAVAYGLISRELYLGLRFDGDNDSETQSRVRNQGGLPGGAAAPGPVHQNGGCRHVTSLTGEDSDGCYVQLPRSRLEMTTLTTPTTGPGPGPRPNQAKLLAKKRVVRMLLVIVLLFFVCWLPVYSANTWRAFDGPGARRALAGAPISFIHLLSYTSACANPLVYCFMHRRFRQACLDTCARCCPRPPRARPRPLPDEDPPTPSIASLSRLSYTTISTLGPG
The experiment in a line: In vitro binding affinity against Cholecystokinin type B receptor in mouse cerebral cortical membranes using [125I]Tyr(SO3H)27]-CCK-8 binding assay. Format: cell membranes.

For assay [3], the target named is Substance-P receptor (Cavia porcellus, UniProt P30547). The experiment in a line: In vitro binding affinity against Tachykinin receptor 1 in guinea pig ileum using organ bath assay. Format: tissue-based.
Substance-P receptor (Cavia porcellus, UniProt P30547), sequence (P30547 whole entry): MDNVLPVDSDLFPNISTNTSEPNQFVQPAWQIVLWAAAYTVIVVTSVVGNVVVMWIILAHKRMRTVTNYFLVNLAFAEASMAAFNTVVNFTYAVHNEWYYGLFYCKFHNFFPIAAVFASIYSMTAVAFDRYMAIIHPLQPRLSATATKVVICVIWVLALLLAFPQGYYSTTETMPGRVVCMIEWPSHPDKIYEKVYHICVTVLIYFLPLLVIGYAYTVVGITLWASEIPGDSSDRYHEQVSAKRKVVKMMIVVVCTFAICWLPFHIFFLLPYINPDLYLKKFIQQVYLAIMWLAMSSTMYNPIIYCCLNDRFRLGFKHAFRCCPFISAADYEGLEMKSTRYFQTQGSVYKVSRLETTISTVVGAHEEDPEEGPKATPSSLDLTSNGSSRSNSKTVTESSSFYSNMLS

Substance-P receptor (Rattus norvegicus, UniProt P14600), sequence (P14600 whole entry): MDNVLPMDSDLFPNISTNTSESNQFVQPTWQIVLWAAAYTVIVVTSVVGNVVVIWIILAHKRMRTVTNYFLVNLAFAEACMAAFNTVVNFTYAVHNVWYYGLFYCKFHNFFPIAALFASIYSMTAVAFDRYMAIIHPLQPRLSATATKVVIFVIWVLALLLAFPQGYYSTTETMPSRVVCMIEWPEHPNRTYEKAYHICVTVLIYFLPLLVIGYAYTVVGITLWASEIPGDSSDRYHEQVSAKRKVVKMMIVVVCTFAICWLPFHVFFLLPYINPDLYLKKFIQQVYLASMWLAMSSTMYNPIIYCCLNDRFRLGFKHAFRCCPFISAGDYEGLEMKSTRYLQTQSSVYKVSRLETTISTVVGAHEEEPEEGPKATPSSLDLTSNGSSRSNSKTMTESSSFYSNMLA

For the molecule `CSCCNS(=O)(=O)c1ccc(N/N=C(\S)N2CCC[C@@H]2C(=O)NCc2ccccc2)c([N+](=O)[O-])c1`, the IC50 at Substance-P receptor [1] and at B2 bradykinin receptor was above 100 µM in each case.
On to `O=C(O)CCCNS(=O)(=O)c1ccc(N/N=C(/S)NCCc2c[nH]c3ccccc23)c([N+](=O)[O-])c1`, for which the figures for the concentration for half-maximal inhibition (IC50) (in assay [2]; at B2 bradykinin receptor) were 11 µM and above 100 µM, respectively.
On to `O=C(O)c1ccc(NC(=S)NNc2ccc(S(=O)(=O)NCCc3c[nH]c4ccccc34)cc2[N+](=O)[O-])cc1`, for which the IC50 in assay [2] is 24 µM; on B2 bradykinin receptor, above 100 µM.
As to `O=C(O)CNS(=O)(=O)c1ccc(NNC(=S)NCCc2c[nH]c3ccccc23)c([N+](=O)[O-])c1`, the IC50 in assay [2] is 46 µM; at B2 bradykinin receptor it was above 100 µM.
Regarding `O=C(O)c1ccccc1NS(=O)(=O)c1ccc(N/N=C(/S)NCCc2c[nH]c3ccccc23)c([N+](=O)[O-])c1`, the IC50 is 4.5 µM in assay [2] and above 100 µM at B2 bradykinin receptor.
For `O=C(O)c1ccc(NS(=O)(=O)c2ccc(N/N=C(/S)NCCc3c[nH]c4ccccc34)c([N+](=O)[O-])c2)cc1` the same measures were 10 µM and above 100 µM.
As for `O=C(O)c1cccc(NS(=O)(=O)c2ccc(NNC(=S)NCCc3c[nH]c4ccccc34)c([N+](=O)[O-])c2)c1`, the IC50 is 3.6 µM in assay [2] and above 100 µM at B2 bradykinin receptor.
With `CSCCNS(=O)(=O)c1ccc(N/N=C(\S)N2CCC[C@H]2C(=O)NCc2ccccc2)c([N+](=O)[O-])c1`, the IC50 on Substance-P receptor [1] and at B2 bradykinin receptor was above 100 µM throughout.
As to `O=C(O)c1cccc(N(Cc2ccccc2)S(=O)(=O)c2ccc(NNC(=S)NCCc3c[nH]c4ccccc34)c([N+](=O)[O-])c2)c1`, the IC50 in assay [2] is 4 µM; on B2 bradykinin receptor it was above 100 µM.
On to `O=C(O)CN(Cc1ccccc1)S(=O)(=O)c1ccc(N/N=C(/S)NC(c2ccccc2)c2ccccc2)c([N+](=O)[O-])c1`, for which the values for the IC50 (in assay [2]; at B2 bradykinin receptor) were 1.9 µM and 0.41 µM, respectively.
Regarding `CSCCNS(=O)(=O)c1ccc(N/N=C(\S)N2CCC[C@H]2C(=O)NC(c2ccccc2)c2ccccc2)c([N+](=O)[O-])c1`, the results for the IC50 at Substance-P receptor [3] and on B2 bradykinin receptor were 980 nM and above 100 µM, respectively.
`O=C(O)CN(CCc1ccccc1)S(=O)(=O)c1ccc(N/N=C(/S)NCCc2c[nH]c3ccccc23)c([N+](=O)[O-])c1`: the concentration for half-maximal inhibition (IC50) in assay [2] is 6 µM; at B2 bradykinin receptor, above 100 µM.
For the molecule `O=C(O)CN(Cc1ccccc1)S(=O)(=O)c1ccc(NNC(=S)NCCc2c[nH]c3ccccc23)c([N+](=O)[O-])c1`, the IC50 is 1.8 µM in assay [2] and above 100 µM on B2 bradykinin receptor.
`O=C(NC(c1ccccc1)c1ccccc1)[C@H]1CCCN1/C(S)=N/Nc1ccccc1[N+](=O)[O-]`: the 50% inhibitory concentration (IC50) at Substance-P receptor [3] was 2310 nM; on Substance-P receptor [1], above 100 µM; on B2 bradykinin receptor, above 100 µM.
As to `O=C(O)CCN(Cc1ccccc1)S(=O)(=O)c1ccc(NNC(=S)NCCc2c[nH]c3ccccc23)c([N+](=O)[O-])c1`, the IC50 in assay [2] is 0.51 µM; on B2 bradykinin receptor it was above 100 µM.
In the case of `O=C(O)CCNS(=O)(=O)c1ccc(N/N=C(/S)NCCc2c[nH]c3ccccc23)c([N+](=O)[O-])c1`, the values for the IC50 (in assay [2]; at B2 bradykinin receptor) were 24 µM and above 100 µM, respectively.
Consider `CSCCNS(=O)(=O)c1ccc(N/N=C(\S)N2CCC[C@@H]2C(=O)NC(c2ccccc2)c2ccccc2)c([N+](=O)[O-])c1`, for which the results for the IC50 at Substance-P receptor [3] and at B2 bradykinin receptor were 7930 nM and above 100 µM, respectively.
`O=C(O)CN(CCCc1ccccc1)S(=O)(=O)c1ccc(N/N=C(/S)NCCc2c[nH]c3ccccc23)c([N+](=O)[O-])c1`: the IC50 in assay [2] was 6 µM; on B2 bradykinin receptor, above 100 µM.
With `O=C(NC(c1ccccc1)c1ccccc1)[C@@H]1CCCN1/C(S)=N/Nc1ccccc1[N+](=O)[O-]`, the figures for the half-maximal inhibitory concentration (IC50) on Substance-P receptor [3], at Substance-P receptor [1] and on B2 bradykinin receptor were 1670 nM, above 100 µM and above 100 µM, respectively.
On to `O=C(O)CCCN(Cc1ccccc1)S(=O)(=O)c1ccc(N/N=C(/S)NCCc2c[nH]c3ccccc23)c([N+](=O)[O-])c1`, for which the 50% inhibitory concentration (IC50) in assay [2] is 2.43 µM; on B2 bradykinin receptor it was above 100 µM.
Take `O=C(O)c1cccc(NC(=S)NNc2ccc(S(=O)(=O)NCCc3c[nH]c4ccccc34)cc2[N+](=O)[O-])c1`: the half-inhibitory concentration (IC50) in assay [2] was 31 µM; on B2 bradykinin receptor, above 100 µM.
Regarding `COc1ccccc1CN[C@H]1CCCN[C@H]1c1ccccc1` [CP-99994], the concentration for half-maximal inhibition (IC50) at Substance-P receptor [3] is 2.9 nM. This counts as single-digit nanomolar.
